In patent US6924302B2, “Substituted triazole diamine derivatives as kinase inhibitors” (Ortho McNeil Pharmaceutical, Inc., priority 2000, dated 2005):

How the values were obtained:
Assay type in all cases: biochemical
[1] = target: T1, HER2 (human epidermal growth factor receptor-2) (Homo sapiens, UniProt P04626); assay: Kinase Selectivity Assay HER2; settings: Table 1; read-out: HER2 IC50
T1 construct: begins at amino acid 676 followed by the remainder of the HER2 cytoplasmic domain; polyhistidine (N)
T1 sequence (P04626 676-1255 limits assumed): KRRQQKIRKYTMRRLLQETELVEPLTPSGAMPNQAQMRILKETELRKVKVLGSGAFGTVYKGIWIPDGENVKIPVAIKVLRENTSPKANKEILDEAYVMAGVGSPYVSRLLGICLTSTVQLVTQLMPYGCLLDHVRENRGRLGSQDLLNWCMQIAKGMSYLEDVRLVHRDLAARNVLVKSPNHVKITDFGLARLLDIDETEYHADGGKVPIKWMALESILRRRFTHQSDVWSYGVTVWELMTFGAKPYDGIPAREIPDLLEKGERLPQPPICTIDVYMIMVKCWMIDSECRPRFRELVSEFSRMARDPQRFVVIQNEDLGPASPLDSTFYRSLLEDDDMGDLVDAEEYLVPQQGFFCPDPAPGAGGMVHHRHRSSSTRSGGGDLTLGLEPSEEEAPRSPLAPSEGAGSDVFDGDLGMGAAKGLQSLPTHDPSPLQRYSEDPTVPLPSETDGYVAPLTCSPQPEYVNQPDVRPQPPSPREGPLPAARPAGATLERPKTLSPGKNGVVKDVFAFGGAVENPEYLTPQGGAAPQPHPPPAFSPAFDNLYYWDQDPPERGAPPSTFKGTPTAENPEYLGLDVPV
Description: (§1) Assays to test compound inhibition of other kinases were preformed using methods that measure the amount of phosphorylation of a biotinylated peptide substrate. Biotinylated peptide substrates were selected from the literature as appropriate for the enzyme being evaluated. […] Assay conditions vary slightly for each protein kinase, for example, insulin receptor kinase requires 10 mM MnCl2 for activity and Calmodulin-dependent protein kinase requires calmodulin and 10 mM CaCl2. These assay conditions are known in the art. The reaction mixture was dispensed into the wells of a streptavidin coated Flashplate and 1 μl drug stock in 100% DMSO was added to a 100 μl reaction volume resulting in a final concentration of 1% DMSO on the reaction. Enzyme was diluted in 50 mM Tris-HCl pH=8.0, 0.1% BSA and add to each well. The reaction was incubated for one hour at 30° C. in the presence of compound. After one hour the reaction mix was aspirated from the plate and the plate was washed with PBS containing 100 mM EDTA. The plate was read on a scintillation counter to determine ^33P-γ-ATP incorporated into the immobilized peptide. Test compounds were assayed in duplicate at 8 concentrations [100 uM, 10 uM, 1 uM, 100 nM, 10 nM, 1 nM, 100 pM, 10 pM]. A maximum and minimum signal for the assay was determined on each plate. The IC50 was calculated from the dose response curve of the percent inhibition of the maximum signal in the assay according to the formula [max signal—background/test compound signal—background (100)=% inhibition] by graphing the percent inhibition against the log concentration of test compound. Known inhibitor compounds appropriate for the kinase being assayed were also included on each plate.
(§2) CDK2 in complex with cyclin A is commercially available (Upstate Biotech, Lake Placid, N.Y.). The CDK4 complex was composed of a mouse CDK4 protein and a mouse Cyclin D1 protein (The mouse CDK4 protein was genetically fused to an N-terminal Flag-epitope tag and the mouse Cyclin D1 protein was fused with an N-terminal AU-1 epitope tag. The genes encoding these proteins were transferred to commercially available baculoviral vectors. The recombinant CDK4/D1 complex was then made by co-infecting commercially available insect cells with viruses carrying these two constructs). […] ERK-1 protein (Discontinued from Calbiochem). EGFR (epidermal growth factor receptor) is purified from human A431 cell membranes (Sigma, St. Louis, Mo., Cat.# E3641).

[2] = target: T2, VEGF-R (vascular endothelial growth factor receptor-2) (Rattus norvegicus, UniProt O08775); assay: VEGF-R Screening Assay; settings: Table 1; read-out: VEGF-R IC50
T2 construct: polyhistidine (6xHIS) (N)
T2 sequence (O08775 786-1343): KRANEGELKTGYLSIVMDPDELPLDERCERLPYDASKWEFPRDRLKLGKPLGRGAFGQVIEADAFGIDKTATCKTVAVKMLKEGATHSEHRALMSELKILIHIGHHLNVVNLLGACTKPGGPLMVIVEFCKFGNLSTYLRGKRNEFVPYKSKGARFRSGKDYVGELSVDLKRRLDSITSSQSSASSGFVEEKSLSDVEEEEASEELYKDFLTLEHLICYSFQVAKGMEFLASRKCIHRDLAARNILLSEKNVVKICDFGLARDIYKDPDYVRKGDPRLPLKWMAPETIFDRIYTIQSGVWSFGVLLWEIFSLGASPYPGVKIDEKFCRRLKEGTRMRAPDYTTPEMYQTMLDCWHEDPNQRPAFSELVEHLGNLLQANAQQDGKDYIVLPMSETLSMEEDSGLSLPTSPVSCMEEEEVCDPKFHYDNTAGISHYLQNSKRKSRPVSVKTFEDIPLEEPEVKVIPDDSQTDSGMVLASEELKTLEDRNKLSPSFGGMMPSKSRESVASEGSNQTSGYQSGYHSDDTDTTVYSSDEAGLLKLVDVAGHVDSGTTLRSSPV
Description: (§3) 70 μL of the kinase reaction mixture was dispensed into the well of a streptavidin coated FlashPlate™ (Cat. # SMP103, NEN, Boston, Mass.). Then 1 μL of test compound stock in 100% DMSO was added to the wells resulting in a final concentration of 1% DMSO in the reaction with a 100 μL final reaction volume. Next, soluble rat tyrosine kinase containing an N-terminal 6×HIS tag was diluted in 50 mM Tris-HCl pH=8.0, 0.1% BSA at a concentration of 5 ng per μL and 30 μL (150 ng enzyme per test well) was added to each well to initiate the reaction. The reaction was incubated for one hour at 30° C. At the end of the 1-hour incubation, the reaction was terminated by aspirating the reaction mixture from the plate and washing the wells twice with PBS containing 100 mM EDTA. The PLC1 biotinylated peptide substrate became immobilized on the Flashplate™ and the incorporation of ^33P-γ-ATP was measured by reading the plate on a scintillation counter. Inhibition of the enzymatic activity of the VEGF-R was measured by observing a reduced amount of ^33P-γ-ATP incorporated into the immobilized peptide.
as §1, §2

CDK1:Cyclin-B = target: T3, CDK1:Cyclin-B (Homo sapiens, UniProt P06493); assay: CDK1 Screening Assay; settings: Table 1; read-out: CDK1 IC50
T3 construct: purchased New England Biolabs 6020; host or cells: insect cells
T3 sequence (P06493 whole entry): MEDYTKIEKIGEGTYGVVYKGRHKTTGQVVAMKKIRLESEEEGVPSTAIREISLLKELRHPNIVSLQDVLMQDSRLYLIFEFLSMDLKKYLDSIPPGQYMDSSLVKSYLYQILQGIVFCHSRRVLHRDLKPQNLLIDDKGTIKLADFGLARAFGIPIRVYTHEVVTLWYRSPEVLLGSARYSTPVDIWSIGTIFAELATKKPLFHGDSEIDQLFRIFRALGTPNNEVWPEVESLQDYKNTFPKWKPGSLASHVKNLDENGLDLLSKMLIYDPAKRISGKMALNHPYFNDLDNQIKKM
T3 sequence (P14635 whole entry partner): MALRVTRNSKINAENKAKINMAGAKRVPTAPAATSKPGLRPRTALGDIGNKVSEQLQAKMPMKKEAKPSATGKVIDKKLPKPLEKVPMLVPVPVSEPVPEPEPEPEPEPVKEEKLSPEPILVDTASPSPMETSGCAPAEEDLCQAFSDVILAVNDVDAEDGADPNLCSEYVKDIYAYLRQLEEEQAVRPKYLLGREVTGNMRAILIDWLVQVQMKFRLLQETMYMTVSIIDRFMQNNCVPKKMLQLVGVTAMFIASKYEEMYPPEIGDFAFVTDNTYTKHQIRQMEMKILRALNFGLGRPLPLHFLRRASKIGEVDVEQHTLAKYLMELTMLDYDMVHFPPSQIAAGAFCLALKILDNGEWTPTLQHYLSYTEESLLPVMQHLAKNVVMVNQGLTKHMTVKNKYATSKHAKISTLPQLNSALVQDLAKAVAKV
Description: as §3, with “100 μl” for “100 μL”, “Next, CDK1:Cyclin-B protein” for “Next, soluble rat tyrosine kinase containing an N-terminal 6×HIS tag”, “of 1” for “of 5”, “30 μl (30” for “30 μL (150”, “The histone-H1” for “The PLC1”, “of CDK1” for “of the VEGF-R”
Assays to test compound inhibition of other kinases were preformed using methods that measure the amount of phosphorylation of a biotinylated peptide substrate. Biotinylated peptide substrates were selected from the literature as appropriate for the enzyme being evaluated. […] Assay conditions vary slightly for each protein kinase, for example, insulin receptor kinase requires 10 mM MnCl2 for activity and Calmodulin-dependent protein kinase requires calmodulin and 10 mM CaCl2. These assay conditions are known in the art. The reaction mixture was dispensed into the wells of a streptavidin coated Flashplate and 1 μl drug stock in 100% DMSO was added to a 100 μl reaction volume resulting in a final concentration of 1% DMSO on the reaction. Enzyme was diluted in 50 mM Tris-HCl pH=8.0, 0.1% BSA and add to each well. The reaction was incubated for one hour at 30° C. in the presence of compound. After one hour the reaction mix was aspirated from the plate and the plate was washed with PBS containing 100 mM EDTA. The plate was read on a scintillation counter to determine ^33P-γ-ATP incorporated into the immobilized peptide. Test compounds were assayed in duplicate at 8 concentrations [100 uM, 10 uM, 1 uM, 100 nM, 10 nM, 1 nM, 100 pM, 10 pM]. A maximum and minimum signal for the assay was determined on each plate. The IC50 was calculated from the dose response curve of the percent inhibition of the maximum signal in the assay according to the formula [max signal—background/test compound signal—background (100)=% inhibition] by graphing the percent inhibition against the log concentration of test compound. Known inhibitor compounds appropriate for the kinase being assayed were also included on each plate. […]

| SMILES | IC50 [1] [nM] | IC50 [2] [nM] | IC50 (CDK1:Cyclin-B) [nM] |
| --- | --- | --- | --- |
| Nc1nc(Nc2ccc(S(N)(=O)=O)cc2)nn1C(=O)c1sccc1-n1cccc1 [Cpd 50, 4-[[5-amino-1-[[3-(1H-pyrrol-1-yl)-2-thienyl]carbonyl]-1H-1,2,4-triazol-3-yl]amino]-benzenesulfonamide] | 200 | 190 | 120 |
| CC(C)(C)OC(=O)/C=C/c1ccc(C(=O)n2nc(Nc3ccc(S(N)(=O)=O)cc3)nc2N)s1 [Cpd 52, 3-[5-[[5-amino-3-[[4-(aminosulfonyl)phenyl]amino]-1H-1,2,4-triazol-1-yl]carbonyl]-2-thienyl]-(2E)-2-propenoic acid-1,1-dimethylethyl ester] | 1470 | 110 | 35 |
| Nc1nc(Nc2ccc(S(N)(=O)=O)cc2)nn1C(=O)c1ccc(C#Cc2ccccc2)s1 [Cpd 53, 4-[[5-amino-1-[[5-(phenylethynyl)-2-thienyl]carbonyl]-1H-1,2,4-triazol-3-yl]amino]-benzenesulfonamide] | > 1000 | > 1000 | > 1000 |
| Nc1nc(Nc2ccc(S(N)(=O)=O)cc2)nn1C(=O)c1c(F)ccc([N+](=O)[O-])c1F [Cpd 54, 4-[[5-amino-1-(2,6-difluoro-3-nitrobenzoyl)-1H-1,2,4-triazol-3-yl]amino]-benzenesulfonamide] | 6100 | 14000 | 550 |
| Cc1cccc(C)c1C(=O)n1nc(Nc2ccc(S(N)(=O)=O)cc2)nc1N [Cpd 56, 4-[[5-amino-1-(2,6-dimethylbenzoyl)-1H-1,2,4-triazol-3-yl]amino]-benzenesulfonamide] | 4170 | 20000 | 490 |
| Nc1nc(Nc2ccc(S(=O)(=O)O)cc2)nn1C(=O)c1c(F)cccc1F [Cpd 59, 4-[[5-amino-1-(2,6-difluorobenzoyl)-1H-1,2,4-triazol-3-yl]amino]-benzenesulfonic Acid] | 7830 | 920 | 1540 |
| Cc1ccc(F)c(C(=O)n2nc(Nc3ccc(S(=O)(=O)O)cc3)nc2N)c1F [Cpd 60, 4-[[5-amino-1-(2,6-difluoro-3-methylbenzoyl)-1H-1,2,4-triazol-3-yl]amino]-benzenesulfonic acid] | 7460 | 890 | 1370 |
| Cc1ccc(F)c(C(=O)n2nc(Nc3ccc(N4CCN(C)CC4)cc3)nc2N)c1F [Cpd 72, 1-(2,6-difluoro-3-methylbenzoyl)-N^3-[4-(4-methyl-1-piperazinyl)phenyl]-1H-1,2,4-triazole-3,5-diamine] | 1490 | 380 | 1430 |
| Cc1ccsc1C(=O)n1nc(Nc2ccc(N3CCN(C)CC3)cc2)nc1N [Cpd 73, N^3-[4-(4-methyl-1-piperazinyl)phenyl]-1-[(3-methyl-2-thienyl)carbonyl]-1H-1,2,4-triazole-3,5-diamine] | 176 | 29 | 2200 |
| Cc1cc(C)c(C(=O)n2nc(Nc3ccc(N4CCN(C)CC4)cc3)nc2N)s1 [Cpd 74, 1-[(3,5-dimethyl-2-thienyl)carbonyl]-N^3-[4-(4-methyl-1-piperazinyl)phenyl]-1H-1,2,4-triazole-3,5-diamine] | 62 | 21 | 460 |
| CCc1ccc(C(=O)n2nc(Nc3ccc(N4CCN(C)CC4)cc3)nc2N)s1 [Cpd 75, 1-[(5-ethyl-2-thienyl)carbonyl]-N^3-[4-(4-methyl-1-piperazinyl)phenyl]-1H-1,2,4-triazole-3,5-diamine] | 60 | 33 | 520 |

Second part, the compound after the results:

| IC50 [1] [nM] | IC50 [2] [nM] | IC50 (CDK1:Cyclin-B) [nM] | SMILES |
| --- | --- | --- | --- |
| 413 | 86.9 | 109 | CCc1ccc(C(=O)n2nc(Nc3ccc(S(=O)(=O)N(C)C)cc3)nc2N)s1 [Cpd 86, 4-[[5-amino-1-[(5-ethyl-2-thienyl)carbonyl]-1H-1,2,4-triazol-3-yl]amino]-N,N-dimethyl-benzenesulfonamide] |
| 436 | 16.8 | 217 | Cc1ccsc1C(=O)n1nc(Nc2ccc(S(=O)(=O)N(C)C)cc2)nc1N [Cpd 87, 4-[[5-amino-1-[(3-methyl-2-thienyl)carbonyl]-1H-1,2,4-triazol-3-yl]amino]-N,N-dimethyl-benzenesulfonamide] |
| ~1000 | 965 | 313 | Cc1ccc(F)c(C(=O)n2nc(Nc3ccc(S(=O)(=O)N(C)C)cc3)nc2N)c1F [Cpd 88, 4-[[5-amino-1-(2,6-difluoro-3-methylbenzoyl)-1H-1,2,4-triazol-3-yl]amino]-N,N-dimethyl-benzenesulfonamide] |
| ~10000 | 598 | 710 | CN(C)S(=O)(=O)c1ccc(Nc2nc(N)n(C(=O)c3c(F)cccc3F)n2)cc1 [Cpd 89, 4-[[5-amino-1-(2,6-difluorobenzoyl)-1H-1,2,4-triazol-3-yl]amino]-N,N-dimethyl-benzenesulfonamide] |
| ~100 | ~100 | ~1000 | CCc1ccc(C(=O)n2nc(Nc3ccc(-n4ccnc4)cc3)nc2N)s1 [Cpd 90, 1-[(5-ethyl-2-thienyl)carbonyl]-N^3-[4-(1H-imidazol-1-yl)phenyl]-1H-1,2,4-triazole-3,5-diamine] |
| 223 | 73.6 | 335 | Cc1ccsc1C(=O)n1nc(Nc2ccc(-n3ccnc3)cc2)nc1N [Cpd 91, N^3-[4-(1H-imidazol-1-yl)phenyl]-1-[(3-methyl-2-thienyl)carbonyl]-1H-1,2,4-triazole-3,5-diamine] |
| ~1000 | 727 | 452 | Nc1nc(Nc2ccc(-n3ccnc3)cc2)nn1C(=O)c1c(F)cccc1F [Cpd 93, 1-(2,6-difluorobenzoyl)-N^3-[4-(1H-imidazol-1-yl)phenyl]-1H-1,2,4-triazole-3,5-diamine] |
